Measured values as given in article PMC4840416, “Constructing and Validating High-Performance MIEC-SVM Models in Virtual Screening for Kinases: A Better Way for Actives Discovery” (Scientific Reports, 2016).

Each compound was assayed against T1, recombinant human ALK protein (Homo sapiens, UniProt Q9UM73) (assay: LanthaScreen TR-FRET in vitro inhibitory activity assay of ALK). Conditions: compound at 2ug/ml.
T1 construct: purchased Life Technologies Inc. PV3867
Format: biochemical
Protocol: All reagents and anhydrous solvents were obtained from commercial sources and used as received. The positive control inhibitors of ALK, crizotinib and ceritinib, were purchased from Bangshunda Technology and Selleck Chemicals, respectively. The compounds were dissolved in 100% dimethyl sulfoxide (DMSO) as a 10 mM stock solution. The final DMSO concentration in each reaction was less than 1%. Purified recombinant human ALK protein (Catalog number: PV3867) as well as reagents for TR-FRET assay, including Lantha Screen™ Tb-PY20 (Catalog number: PV3552), Fluorescein-Poly GT (Catalog number: PV3610), ATP (Catalog number: PV3227), Kinase Quench Buffer (Catalog number: P2832), Kinase Buffer (Catalog number: PV3189), and Antibody Dilution Buffer (Catalog number: PV3574), were all obtained from Life Technologies Inc.
Lantha Screen™ kinase assay based on TR-FRET technology was used to measure the inhibitory activity of the screened compounds. All the assays were carried out in 384-well plate format. The 4 × test compounds were firstly prepared before the enzyme reaction starts. The 4 × recombinant human ALK protein and 2 × Substrate/ATP mixture were separately prepared in 50 mM HEPES (pH = 7.5), 0.01% BRIJ-35, 10 mM MgCl2, 4 mM MnCl2, 1 mM EGTA, and 2 mM DTT. The final 10 μL kinase reaction consists of 5 μL 1 × Substrate/ATP mixture (0.2 μM substrate and 5 μM ATP), 2.5 μL ALK (5 ng/ml ALK protein), and 2.5 μL 1 × test compounds with desired concentration. The assay plate was shook on a plate shaker for 30 seconds to mix the reactions thoroughly. After 1 hour kinase reaction incubation at room temperature (20 ~ 25 °C), 10 μL of pre-prepared 20 mM EDTA and 4 nM Tb-labeled antibody solution was then added to terminate the kinase reactions and to initiate antibody binding, and the assay plate was incubated for another 1 hour at room temperature. Then, the assay plate was placed into a fluorescence plate reader (BioTek Synergy™ 4) to measure both fluoresce in and terbium emission signals (excitation: 340 nm; emission: 520 and 495 nm, respectively) with 100 μs delay time and 200 μs integration time. To determine the IC50 values, the resulted inhibitory activity calculated from TR-FRET emission ratio (i.e. fluoresce in emission intensity/terbium emission intensity) was plotted against the concentration of inhibitor, and the data was fitted to a dose-response curve with a variable slop.

T1 sequence (Q9UM73 1058-1620 limits assumed): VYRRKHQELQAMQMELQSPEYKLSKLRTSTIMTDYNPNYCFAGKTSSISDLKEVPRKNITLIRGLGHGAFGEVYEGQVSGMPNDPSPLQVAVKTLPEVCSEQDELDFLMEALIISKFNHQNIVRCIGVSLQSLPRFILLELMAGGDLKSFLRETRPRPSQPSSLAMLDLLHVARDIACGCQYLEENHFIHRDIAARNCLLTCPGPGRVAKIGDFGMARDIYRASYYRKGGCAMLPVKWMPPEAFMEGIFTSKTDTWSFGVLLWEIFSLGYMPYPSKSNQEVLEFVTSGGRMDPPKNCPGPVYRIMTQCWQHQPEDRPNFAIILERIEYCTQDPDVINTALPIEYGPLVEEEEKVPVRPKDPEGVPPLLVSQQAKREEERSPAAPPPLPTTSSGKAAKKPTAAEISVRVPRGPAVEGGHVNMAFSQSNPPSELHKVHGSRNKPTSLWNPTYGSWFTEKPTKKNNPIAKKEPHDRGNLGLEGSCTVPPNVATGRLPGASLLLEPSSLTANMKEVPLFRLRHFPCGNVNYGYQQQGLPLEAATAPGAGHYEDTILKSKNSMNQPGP

Structure (SMILES) | Averaged Enzymatic Inhibition @ 2ug/ml (%)
O=C1/C(=C/c2ccc(-c3cccc(Cl)c3)o2)CCC/C1=C\c1ccc(-c2cccc(Cl)c2)o1 [AA-504/07472022] | 40.455%
c1ccc2cc3c(ccc4ccc5cc6c(ccc7ccccc76)cc5c43)cc2c1 [AB-131/42301451] | 28.575%
Cc1ccc(-c2nc(N3CC4(C)CC3CC(C)(C)C4)c3ccccc3n2)cc1 (centres unmarked) [AE-641/40974923] | 13.995%
c1ccc(-c2oc3ncn4nc(COc5cccc6ccccc56)nc4c3c2-c2ccccc2)cc1 [AE-848/12917024] | 13.565%
CC(C)c1ccc(-c2c(C#N)c(N)nc3sc(C(=O)Nc4ccc(Cl)cc4)c(N)c23)cc1 [AE-848/15116593] | -8.375%
Cc1ccccc1NC(=O)c1sc2nc(N)c(C#N)c(-c3ccc(C(C)C)cc3)c2c1N [AE-848/15116597] | 8.9%
Cc1ccc(NC(=O)c2sc3nc(N)c(C#N)c(-c4ccc(C(C)C)cc4)c3c2N)cc1Cl [AE-848/15116611] | 10.08%
O=C1C2=C(NC3=C(C(=O)c4ccccc43)C23C(=O)c2cccc4cccc3c24)c2ccccc21 [AE-848/15341192] | 13.145%
COc1ccc(-n2c(-c3ccc(-c4ccccc4)cc3)nnc2-c2cccc3ccccc23)cc1 [AE-848/32007021] | 5.085%
Cc1cccc(C)c1OCC(O)CN1CCC(CN2C(=O)c3cccc4cccc(c34)C2=O)CC1 (centres unmarked) [AF-399/14388040] | -20.41%
O=C1c2cccc3cccc(c23)C(=O)N1CC1CCN(S(=O)(=O)/C=C/c2ccccc2)CC1 [AF-399/14864072] | -20.25%
OC(CNCCc1ccccc1)Cn1c(-c2ccccc2)c(-c2ccccc2)c2ccc3ccccc3c21 (centres unmarked) [AF-399/15128092] | -33.405%
Cc1cc(C)c2c(c1)c(-c1ccccc1)c(-c1ccccc1)n2CC(O)CNCc1ccccc1 (centres unmarked) [AF-399/15128108] | -21.105%
Cc1cc(C)c2c(c1)c(-c1ccccc1)c(-c1ccccc1)n2CC(O)CNc1ccc(C(C)C)cc1 (centres unmarked) [AF-399/15128126] | 32.1%
Cc1cc(C)c2c(c1)c(-c1ccccc1)c(-c1ccccc1)n2CC(O)CN1CCC(C)CC1 (centres unmarked) [AF-399/15128132] | -9.645%
CC(C)N(C(=O)Cn1c(/C=C/c2ccccc2)nc2ccccc21)c1ccccc1 [AF-399/15335536] | 5.725%
Cc1ccc(-c2ccc(/C=C3/SC(N4CCN(c5cccc(C)c5)CC4)=NC3=O)o2)cc1 [AF-399/40881300] | 13.735%
Cc1ccc(C2C(C(=O)c3cc4ccccc4o3)=C(O)C(=O)N2c2nc3c(C)cc(C)cc3s2)cc1 (centres unmarked) [AF-399/42017504] | -5.97%
Nc1cc(NC(=O)c2cn(-c3ccccc3)nc2-c2ccccc2)cc(Oc2ccccc2)c1 [AG-205/33688061] | 14.9%
C=CCN(C(=O)c1ccc2nc(-c3ccccc3)c(-c3ccccc3)nc2c1)c1ccccc1 [AG-205/36717014] | 19.28%
COc1cc(/C=N/n2c(-c3ccccc3)n[nH]c2=S)cc(OC)c1O [AG-205/36915079] | 18.19%
CCc1ccc(-n2c(CSc3nnnn3-c3ccccc3)nc3ccccc3c2=O)cc1 [AG-205/37086057] | 40.815%
Cc1ccccc1NC(=O)c1cc2ccccc2c(C=Nc2ccccc2Cl)c1O [AG-664/32341038] | 6.53%
Cc1cc(C)c2oc(-c3ccc(C)c(NS(=O)(=O)c4cc([N+](=O)[O-])ccc4Cl)c3)nc2c1 [AG-690/08629011] | 26.47%
Cc1ccc(NC(=O)c2ccc(-c3ccccc3)cc2)c(OC(=O)c2ccc(-c3ccccc3)cc2)c1 [AG-690/09396003] | 3.685%
CCCn1c(=O)c(C(=O)NNS(=O)(=O)c2ccc(Br)cc2)c(O)c2ccccc21 [AG-690/11765341] | 9.265%
